Data taken from patent US5451600A, “Substituted tetrahydrobenzopyrrolylfuranoic acid derivatives as phospholipase A2 inhibitors” (Hoffmann-La Roche Inc., priority 1994, dated 1995).
pIC50: −log10 of the molar value. Where two headings read alike, the source gives them in different places.

What was measured:
cellular PLA2 = assay: Inhibition of Cellular Phospholipase A2 (A23187-stimulated macrophages); format: cell-based; conditions: rat peritoneal macrophages, A-23187 stimulated
Protocol: II. Inhibition of Cellular Phospholipase A2. - % Inhibition of Cellular PLA2
Resident macrophages were obtained from rats by peritoneal lavage with phosphate buffered saline minus Ca2^++ and Mg2^++ (PBS). Cells were washed 3 times with PBS and resuspended in Dulbecco's Modified Eagle's Medium (GiBco) containing L-glutamine low D-glucose (1000 mg/L), and sodium pyruvate (110 mg/L), supplemented with 10% fetal calf serum. Cells were counted on a Coulter ZBI cell counter and then resuspended to a concentration of 6×10^6 cells/1.5 ml. The cell suspension (1.5 ml culture dishes (35 mm) and the cells were allowed to adhere to the dishes for 90 minutes at 37° C. Dishes were washed 3 times with PBS to remove non-adherent cells. [^14 C]arachidonic acid ([^14 C]-AA, approximately […], were added to the cells (1 uCi/dish) and allowed to incorporate for 120 minutes. Medium containing unincorporated [^14 C]-AA was removed and the cell layer was again washed 3 times with PBS. Inhibitors were dissolved in dimethylsulfoxide (DMSO) and added directly to the macrophages in Hank's Balanced Salt Solution (GiBco) phosphate-buffered, pH 7.4) to obtain the desired final concentration. Cells were incubated with drug or DMSO for 30 minutes at 37° C. and were then stimulated with calcium-ionophore A-23187 (0.75 uM) for 20 minutes. The extracellular medium was removed and the [^14 C] radioactivity released into this medium from AA metabolism was measured by liquid scintillation spectroscopy. The amounts of LTB4 and PGE2 were measured in the extracellular medium by radio immunoassay with specific antisera. The effects of inhibitor were measured as percent inhibition of A23187- stimulated AA metabolite release (^14 C release, PGE2 and LTB4 production) (control) which were calculated from the formula: [formula] IC50 's were calculated as described in the HSF-PLA2 assay.

[1] = tested on: carrageenan-induced paw edema in rats; assay: Carrageenan-induced paw edema model of inflammation; format: in vivo; conditions: rat; for inhibition in vivo at 100 mg/kg: 100 mg/Kg po
[2] = molecular target: T1, PLA2 activity in human synovial fluid (HSF) (Homo sapiens, UniProt P14555); assay: Phospholipase A2 (PLA2) enzymatic assay - % Inhibition of HSF-PLA2; format: biochemical; conditions: for inhibition at 5 µM: read-out: % Inhib. of HSF-PLA2 at 5 μM; for pIC50: human synovial fluid PLA2, 30 min at 37° C., pH 7.3
T1 construct: Synovial fluid was obtained from patients with rheumatoid arthritis; from tissue; host or cells: cell-depleted synovial fluid of patients with rheumatoid arthritis
T1 sequence (P14555 21-144): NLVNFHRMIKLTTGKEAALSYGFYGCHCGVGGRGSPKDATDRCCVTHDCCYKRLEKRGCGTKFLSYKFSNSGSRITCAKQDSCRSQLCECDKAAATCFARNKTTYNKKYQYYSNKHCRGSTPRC
Description: 1, Phospholipase A2 (PLA2) enzymatic assay - % Inhibition of HSF-PLA2
PLA2 assay procedure described by Hope et al., Inflammation 14:543-559 (1.990) was utilized to measure the inhibitory activity of the invention (inhibitor) against PLA2 activity in human synovial fluid (HSF). Synovial fluid was obtained from patients with rheumatoid arthritis. The assay procedure measured the release of [1-^14 C]oleic acid from the sn-2 position of phospholipids in autoclaved Escherichia coli previously grown in media containing [1-^14 C]oleic acid. The standard assay reaction conditions included 1×10^9 Escherichia coil (10,000 dpm ^14 C), 0.15% (v/v) cell-depleted HSF, (which was equivalent to 66 μg protein/mL) 2 mM CaCl2, 150 mM NaCl, 50 mM sodium (N-[2-hydroxyethyl] piperazine-N'-[2-ethanesulfonate]) (HEPES) buffer (pH 7.3), 1% dimethyl sulfoxide (DMSO) and various concentrations of inhibitor in a total volume of 0.5 ml. Inhibitors were dissolved in DMSO and added. The reaction was initiated by addition of HSF, incubated for 30 min at 37° C. and then stopped by addition of 2.5 ml of chloroform/methanol (1:1.5, v/v). The total lipids were extracted by the method of Bligh, E. G., and Dyer, W. J, Can. J. Biochem. Physiol. 37:911-917 (1959) by the further addition of 0.5 mL of chloroform and 1 mL of water with mixing. The lipid extract was redissolved in chloroform/methanol (9:1, v/v) containing 10 ug of carrier oleic acid. The oleic acid was separated from phospholipids by thin layer chromatography using gel-impregnated glass fiber sheets (ITLC type SG sheets). The sheets were preactivated by heating at 110° C. for 30 min. The lipid extract was applied to the sheets and chromatographed for 6 minutes, using hexane/acetic acid (100:1, v/v). The positions on the sheet containing oleic acid and phospholipids were visualized by exposure to iodine vapor and located by comparison to standards. The oleic acid and phospholipid zones were cut from the sheets, shaken individually with 2 ml of ethanol/water (80:20, v/v) and 15 ml of Aquasol, then counted for [^14 C] radioactivity (dpm). PLA2 activity, expressed as percent hydrolysis, was calculated from the formula: [formula] and was corrected for nonenzymatic hydrolysis of the substrate. Percent inhibition due to the presence of drug was calculated from the formula: [formula]
When various concentrations of a Compound of Formula I were tested, the percent inhibition at each concentration was plotted as log concentration (abscissa) versus percent inhibition (ordinate) and the IC50 was determined from this plot.

[3] = tested on: adjuvant-induced arthritis in male Lewis rats; assay: Established adjuvant-induced arthritis test; format: in vivo, rat; conditions: day 28 minus day 21, vehicle value in parentheses
Protocol: IV. Adjuvant-induced Arthritis
Male Lewis rats (120-140 g) received 0.1 mg myeobacterium brityricum (0.5% ow/v) heavy mineral oil containing 0.2% digitonin administered in the base of the tail and the resulting arthritis was allowed to develop for 21 days (Coffey and Salvador, 1981). The combinded volumes of both hind paws were measured using a water plethysmograph by immersion of the paws to the level of the lateral malleolus. The animals were divided into drug-treatedand vehicle (control) groups (six rats per group) with approximately equal volumes of both hind paws. On day 21, body weights were recorded and the i.p. or p.o. vehicle and drug were then administered daily for seven days. On day 28, the final day of the experiment, heparinized (0.2 units/100 μl) blood was also collected for measurement of plasma fibrinogen concentrations (Goodwin, 1961). The changes in paw volume and body weight were calculated as paw volume or body weight at day 28 minus paw volume or body weight at day 21. Values are reported as means ± S.E. for n=6. Plasma fibrinogen concentration was quantitated according to Goodwin et al. (1961) and is expressed in mg/dl. Statistical differences between measurement parameters of the drug-treated and control groups were determined using Students's t-test.

[4] = 30 mg/Kg ip, 2 hr, read-out: Carrageenan ind. paw edema % Inhib. 2 hr
[5] = 2 hr, read-out: Carrageenan ind. paw edema % Inhib. 2 hr
[6] = 20 mg/Kg ip, 2 hr, read-out: Carrageenan ind. paw edema % Inhib. 2 hr

inhibition at 5 µM [2]	Compound	% Inhib. of cellular PLA2 at 5 μM (cellular PLA2)	inhibition in vivo at 30 mg/kg [1, 4]	inhibition in vivo at 100 mg/kg [1, 5]	further results
81%	CCCCCCCCC1CCCc2c1n(CCCCCCCC)c1ccc(Oc3ccc(C(=O)O)o3)cc21 (racemic) [Example 154, rac-5-[(1,2,3,4-tetrahydro-1,9-dioctyl-9H-dibenzo[b,d]pyrrol-6-yl)oxy]-2-furancarboxylic acid]	78%	45%	49%	Change of body wt. (vehicle) ([3]; 30 mg/Kg po daily seven days): 10 g
83%	CCCCCCCCCn1c2c(c3cc(Oc4ccc(C(=O)O)o4)ccc31)CCCC2 [Example 142, 5-[(1,2,3,4-tetrahydro-9-nonyl-9H-dibenzo[b,d]pyrrol-6-yl)oxy]-2-furancarboxylic acid]	90%			inhibition in vivo at 30 mg/kg ([1]; 30 mg/Kg po, 2 hr, read-out: Carrageenan ind. paw edema % Inhib. 2 hr): 48%
47%	O=C(O)c1ccc(Oc2ccc3c(c2)c2c(n3CCCCc3ccccc3)CCCC2)o1 [Example 145, 5-[[1,2,3,4-tetrahydro-9-(4-phenylbutyl)-9H-dibenzo[b,d]pyrrol-6-yl]oxy]-2-furancarboxylic acid]	99%	43%		pIC50 [2]: 5.32
37%	O=C(O)c1ccc(Oc2ccc3c(c2)c2c(n3Cc3ccc(F)cc3)CCCC2)o1 [Example 146, 5-[[9-[(4-fluorophenyl)methyl]-1,2,3,4-tetrahydro-9H-dibenzo[b,d]pyrrol-6-yl]oxy]-2-furancarboxylic acid]	98%	51%	33%	
37%	O=C(O)c1ccc(Oc2ccc3c(c2)c2c(n3Cc3cccc(F)c3)CCCC2)o1 [Example 147, 5-[[9-[(3-fluorophenyl)methyl]-1,2,3,4-tetrahydro-9H-dibenzo[b,d]pyrrol-6-yl]oxy]-2-furancarboxylic acid]	94%	49%		
62%	COc1ccc(Cn2c3c(c4cc(Oc5ccc(C(=O)O)o5)ccc42)CCCC3)cc1 [Example 149, 5-[[1,2,3,4-tetrahydro-9-[(4-methoxyphenyl)methyl]-9H-dibenzo[b,d]pyrrol-6-yl]oxy]-2-furancarboxylic acid]	99%	48%		
42%	COc1ccc(Cn2c3c(c4cc(Oc5ccc(C(=O)O)o5)ccc42)CCCC3)cc1OC [Example 150, 5-[[1,2,3,4-tetrahydro-9-[(3,4-dimethoxyphenyl)methyl]-9H-dibenzo[b,d]pyrrol-6-yl]oxy]-2-furancarboxylic acid]	96%	45%		
40%	CCCCCCCCn1c2c(c3cc(C(=O)c4ccc(C(=O)O)o4)ccc31)CCCC2 [Example 157, 5-[(1,2,3,4-tetrahydro-9-octyl-9H-dibenzo[b,d]pyrrol-6-yl)carbonyl]-2-furancarboxylic acid]	68%		44%	inhibition in vivo at 20 mg/kg [1, 6]: 41%

Continued, compound first:

Compound	inhibition at 5 µM [2]	% Inhib. of cellular PLA2 at 5 μM (cellular PLA2)	inhibition in vivo at 30 mg/kg [1, 4]	inhibition in vivo at 100 mg/kg [1, 5]	further results
CCCCCCCCn1c2c(c3cc(/C=C\c4ccc(C(=O)O)o4)ccc31)CCCC2 [Example 51, (Z)-5-[2-(1,2,3,4-tetrahydro-9-octyl-9H-dibenzo[b,d]pyrrol-6-yl)ethenyl]-2-furancarboxylic acid]	67%	85%		72%	pIC50 (cellular PLA2): 5.70; inhibition in vivo at 1 mg/kg ([1]; 1 mg/Kg ip, 2 hr, read-out: Carrageenan ind. paw edema % Inhib. 2 hr): 70%; pIC50 [2]: 5.40; Change of body wt. (vehicle) ([3]; 10 mg/Kg po daily seven days): 6 g; Change of paw volume (vehicle) ([3]; 10 mg/Kg po daily seven days): 0.71 mL
CCCCCCCCn1c2c(c3cc(CCc4ccc(C(=O)O)o4)ccc31)CCCC2 [Example 55, 5-[2-(1,2,3,4-tetrahydro-9-octyl-9H-dibenzo[b,d]pyrrol-6-yl)ethyl]-2-furancarboxylic acid]	73%	91%		49%	inhibition in vivo at 10 mg/kg ([1]; 10 mg/Kg ip, 2 hr, read-out: Carrageenan ind. paw edema % Inhib. 2 hr): 59%
CCCCCCCCn1c2c(c3ccc(Oc4ccc(C(=O)O)o4)cc31)CCCC2 [Example 133, 5-[(1,2,3,4-tetrahydro-9-octyl-9H-dibenzo[b,d]pyrrol-7-yl)oxy]-2-furancarboxylic acid]	31%	85%		58%	
CCCCCCCCn1c2c(c3cc(Oc4ccc(C(=O)O)o4)ccc31)CCCC2(C)C [Example 134, 5-[(1,2,3,4-tetrahydro-1,1-dimethyl-9-octyl-9H-dibenzo[b,d]pyrrol-6-yl)oxy]-2-furancarboxylic acid]	86%	94%		48%	inhibition in vivo at 20 mg/kg [1, 6]: 36%
O=C(O)c1ccc(Oc2ccc3c(c2)c2c(n3Cc3ccc(Cl)cc3)CCCC2)o1 [Example 139, 5-[[1,2,3,4-tetrahydro-9-(4-chlorophenyl)methyl-9H-dibenzo[b,d]pyrrol-6-yl]oxy]-2-furancarboxylic acid]	31%	100%	68%		
(E)-5-[2-(1,2,3,4-tetrahydro-3,3dimethyl-9-octyl-9 H-dibenzo[b,d]-pyrrol-6yl)ethenyl]-2-furancarboxylic acid [Example 45]		53%			Carrageenan ind. paw edema % Inhib. 2 hr ([1]; 20 mg/Kg ip): 46%; % Inhib. of HSF-PLA2 at 5 μM ([2]; 5 μM): 86%
